Data taken from US12258327B2, “5-membered heteroaryl-containing aminopyridine compounds as EGFR inhibitors” (YUHAN CORPORATION, priority 2021, dated 2025).
Like-named read-outs stand apart in the source and are kept apart here.

Assays:
EGFR del19/T790M/C797S = EGFR del19/T790M/C797S (Homo sapiens, UniProt P00533, C797S/DEL746-750/T790M); test: Biochemical EGFR kinase assay (Lance Ultra TR-FRET), triple mutant del19/T790M/C797S
Outline: (§1)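 Enzyme reactions lasted 1 hour at room temperature with test compounds between 0.003 and 10 μM, followed by 10 mM EDTA quench.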

EGFR L858R/T790M/C797S = EGFR L858R/T790M/C797S (Homo sapiens, UniProt P00533, C797S/L858R/T790M); test: Biochemical EGFR kinase assay (Lance Ultra TR-FRET), triple mutant L858R/T790M/C797S
Chain of EGFR L858R/T790M/C797S (P00533 25-1210 T790M/C797S/L858R): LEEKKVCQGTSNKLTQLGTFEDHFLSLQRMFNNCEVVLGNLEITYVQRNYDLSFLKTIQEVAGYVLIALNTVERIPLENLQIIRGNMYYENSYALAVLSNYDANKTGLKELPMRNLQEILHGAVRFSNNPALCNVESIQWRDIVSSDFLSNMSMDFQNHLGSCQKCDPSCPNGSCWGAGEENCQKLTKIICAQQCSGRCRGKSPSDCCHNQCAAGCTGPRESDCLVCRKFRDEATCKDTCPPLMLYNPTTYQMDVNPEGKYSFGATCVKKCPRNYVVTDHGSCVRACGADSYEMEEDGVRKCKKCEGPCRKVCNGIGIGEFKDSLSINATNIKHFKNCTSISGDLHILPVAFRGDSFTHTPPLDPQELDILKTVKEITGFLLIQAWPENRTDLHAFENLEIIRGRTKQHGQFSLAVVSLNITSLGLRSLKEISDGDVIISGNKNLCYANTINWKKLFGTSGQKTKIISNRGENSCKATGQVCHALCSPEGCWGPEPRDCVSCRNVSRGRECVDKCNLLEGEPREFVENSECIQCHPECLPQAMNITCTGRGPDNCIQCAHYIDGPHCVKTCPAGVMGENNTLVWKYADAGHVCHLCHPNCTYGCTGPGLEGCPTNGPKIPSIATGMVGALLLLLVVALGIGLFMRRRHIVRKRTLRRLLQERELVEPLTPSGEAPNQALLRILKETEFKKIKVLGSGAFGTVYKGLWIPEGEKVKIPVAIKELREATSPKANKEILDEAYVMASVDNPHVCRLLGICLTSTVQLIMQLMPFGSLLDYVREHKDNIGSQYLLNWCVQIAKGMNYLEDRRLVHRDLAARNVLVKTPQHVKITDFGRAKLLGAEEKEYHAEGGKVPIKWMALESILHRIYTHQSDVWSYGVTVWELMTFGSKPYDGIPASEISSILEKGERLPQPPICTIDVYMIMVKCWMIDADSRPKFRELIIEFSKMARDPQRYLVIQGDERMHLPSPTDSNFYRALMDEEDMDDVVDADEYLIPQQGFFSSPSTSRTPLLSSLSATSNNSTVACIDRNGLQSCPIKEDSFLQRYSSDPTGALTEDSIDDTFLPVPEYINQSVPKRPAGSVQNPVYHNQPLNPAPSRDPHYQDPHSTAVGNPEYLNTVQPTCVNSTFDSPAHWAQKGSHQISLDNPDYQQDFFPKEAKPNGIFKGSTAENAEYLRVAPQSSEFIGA
Outline: as §1

EGFR del19/C797S = EGFR del19/C797S (Homo sapiens, UniProt P00533, C797S/DEL746-750); test: Biochemical EGFR kinase assay (Lance Ultra TR-FRET), double mutant del19/C797S
Chain of EGFR del19/C797S (P00533 with tags, fused parts or gaps DEL746-750/C797S): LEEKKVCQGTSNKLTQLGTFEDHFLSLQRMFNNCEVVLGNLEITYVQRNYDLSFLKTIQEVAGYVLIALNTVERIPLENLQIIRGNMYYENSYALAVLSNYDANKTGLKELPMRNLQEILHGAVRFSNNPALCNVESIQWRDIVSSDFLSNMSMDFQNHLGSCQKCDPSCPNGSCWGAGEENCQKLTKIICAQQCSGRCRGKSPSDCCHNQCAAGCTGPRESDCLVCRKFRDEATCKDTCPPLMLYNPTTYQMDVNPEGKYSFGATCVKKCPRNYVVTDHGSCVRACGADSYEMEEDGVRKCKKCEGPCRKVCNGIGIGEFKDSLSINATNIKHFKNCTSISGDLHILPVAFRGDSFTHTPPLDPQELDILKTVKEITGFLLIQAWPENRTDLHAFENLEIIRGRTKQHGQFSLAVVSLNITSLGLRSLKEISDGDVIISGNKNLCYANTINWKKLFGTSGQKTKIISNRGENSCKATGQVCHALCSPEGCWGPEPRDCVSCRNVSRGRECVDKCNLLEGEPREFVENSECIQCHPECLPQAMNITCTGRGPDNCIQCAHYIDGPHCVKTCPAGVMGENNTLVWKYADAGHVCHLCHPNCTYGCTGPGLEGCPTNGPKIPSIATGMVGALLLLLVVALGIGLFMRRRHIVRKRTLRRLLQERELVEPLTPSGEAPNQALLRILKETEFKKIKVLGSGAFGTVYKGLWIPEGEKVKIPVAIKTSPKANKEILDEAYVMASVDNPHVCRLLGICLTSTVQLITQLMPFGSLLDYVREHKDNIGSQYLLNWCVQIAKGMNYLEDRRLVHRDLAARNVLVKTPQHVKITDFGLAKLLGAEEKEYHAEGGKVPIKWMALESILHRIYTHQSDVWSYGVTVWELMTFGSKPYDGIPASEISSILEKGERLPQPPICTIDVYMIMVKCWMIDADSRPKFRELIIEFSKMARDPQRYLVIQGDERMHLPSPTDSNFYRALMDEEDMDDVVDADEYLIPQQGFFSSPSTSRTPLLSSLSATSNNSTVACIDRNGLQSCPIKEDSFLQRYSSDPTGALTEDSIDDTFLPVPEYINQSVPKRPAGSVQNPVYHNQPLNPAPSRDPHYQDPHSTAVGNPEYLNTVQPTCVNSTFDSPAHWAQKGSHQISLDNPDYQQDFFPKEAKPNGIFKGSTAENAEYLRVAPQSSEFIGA
Outline: as §1

EGFR L858R/C797S = EGFR L858R/C797S (Homo sapiens, UniProt P00533, C797S/L858R); test: Biochemical EGFR kinase assay (Lance Ultra TR-FRET), double mutant L858R/C797S
Chain of EGFR L858R/C797S (P00533 25-1210 C797S/L858R): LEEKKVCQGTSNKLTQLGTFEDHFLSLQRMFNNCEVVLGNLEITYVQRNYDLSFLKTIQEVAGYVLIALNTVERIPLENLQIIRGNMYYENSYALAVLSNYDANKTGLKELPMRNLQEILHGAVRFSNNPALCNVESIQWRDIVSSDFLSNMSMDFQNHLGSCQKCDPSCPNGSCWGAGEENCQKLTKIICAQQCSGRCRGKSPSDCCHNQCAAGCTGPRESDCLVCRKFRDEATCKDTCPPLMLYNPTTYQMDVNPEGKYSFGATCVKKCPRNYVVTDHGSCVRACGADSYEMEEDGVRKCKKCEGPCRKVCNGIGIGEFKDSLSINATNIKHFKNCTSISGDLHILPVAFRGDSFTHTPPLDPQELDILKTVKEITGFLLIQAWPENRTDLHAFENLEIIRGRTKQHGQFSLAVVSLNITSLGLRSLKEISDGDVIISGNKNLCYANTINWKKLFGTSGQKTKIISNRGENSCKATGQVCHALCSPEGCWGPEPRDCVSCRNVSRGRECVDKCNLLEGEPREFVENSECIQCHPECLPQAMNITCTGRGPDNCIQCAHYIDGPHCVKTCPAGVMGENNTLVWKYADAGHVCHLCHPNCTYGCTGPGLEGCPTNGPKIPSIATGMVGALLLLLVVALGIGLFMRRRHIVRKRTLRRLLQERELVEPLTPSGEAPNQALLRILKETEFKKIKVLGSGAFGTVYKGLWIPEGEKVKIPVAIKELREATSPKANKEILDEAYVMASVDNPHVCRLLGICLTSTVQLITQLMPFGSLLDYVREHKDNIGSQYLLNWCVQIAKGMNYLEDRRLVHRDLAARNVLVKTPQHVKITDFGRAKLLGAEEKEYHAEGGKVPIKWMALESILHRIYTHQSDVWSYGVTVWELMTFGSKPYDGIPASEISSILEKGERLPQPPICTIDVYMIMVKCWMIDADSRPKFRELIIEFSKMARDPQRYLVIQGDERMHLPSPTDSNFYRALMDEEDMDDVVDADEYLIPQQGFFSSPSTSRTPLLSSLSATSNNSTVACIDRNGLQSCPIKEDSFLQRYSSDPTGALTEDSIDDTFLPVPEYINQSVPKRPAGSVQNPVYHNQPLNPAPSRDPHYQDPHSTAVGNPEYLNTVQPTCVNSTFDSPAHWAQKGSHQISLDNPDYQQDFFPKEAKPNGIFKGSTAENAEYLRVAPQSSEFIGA
Outline: as §1

EGFR wildtype (WT) = EGFR wildtype (WT) (Homo sapiens, UniProt P00533); test: Biochemical EGFR kinase assay (Lance Ultra TR-FRET), wildtype
Outline: as §1

[1] = IC50 del19/T790M/C797S (nM) 100 μM ATP, 100 μM ATP
[2] = Km ATP, read-out: IC50 del19/T790M/C797S (nM) Km ATP
[3] = IC50 L858R/T790M/C797S (nM) 100 μM ATP, 100 μM ATP
[4] = Km ATP, read-out: IC50 L858R/T790M/C797S (nM) Km ATP
[5] = IC50 del19/C797S (nM) 100 μM ATP, 100 μM ATP
[6] = Km ATP, read-out: IC50 del19/C797S (nM) Km ATP
[7] = IC50 L858R/C797S (nM) 100 μM ATP, 100 μM ATP
[8] = Km ATP, read-out: IC50 L858R/C797S (nM) Km ATP
[9] = IC50 WT (nM) 100 μM ATP, 100 μM ATP
[10] = Km ATP, read-out: IC50 WT (nM) Km ATP
[11] = read-out: IC50 del19/T790M/C797S (nM) 100 μM ATP, 100 μM ATP
[12] = read-out: IC50 L858R/T790M/C797S (nM) 100 μM ATP, 100 μM ATP
[13] = read-out: IC50 del19/C797S (nM) 100 μM ATP, 100 μM ATP
[14] = read-out: IC50 L858R/C797S (nM) 100 μM ATP, 100 μM ATP
[15] = read-out: IC50 WT (nM) 100 μM ATP, 100 μM ATP

Chain of EGFR del19/T790M/C797S (P00533 with tags, fused parts or gaps DEL746-750/T790M/C797S): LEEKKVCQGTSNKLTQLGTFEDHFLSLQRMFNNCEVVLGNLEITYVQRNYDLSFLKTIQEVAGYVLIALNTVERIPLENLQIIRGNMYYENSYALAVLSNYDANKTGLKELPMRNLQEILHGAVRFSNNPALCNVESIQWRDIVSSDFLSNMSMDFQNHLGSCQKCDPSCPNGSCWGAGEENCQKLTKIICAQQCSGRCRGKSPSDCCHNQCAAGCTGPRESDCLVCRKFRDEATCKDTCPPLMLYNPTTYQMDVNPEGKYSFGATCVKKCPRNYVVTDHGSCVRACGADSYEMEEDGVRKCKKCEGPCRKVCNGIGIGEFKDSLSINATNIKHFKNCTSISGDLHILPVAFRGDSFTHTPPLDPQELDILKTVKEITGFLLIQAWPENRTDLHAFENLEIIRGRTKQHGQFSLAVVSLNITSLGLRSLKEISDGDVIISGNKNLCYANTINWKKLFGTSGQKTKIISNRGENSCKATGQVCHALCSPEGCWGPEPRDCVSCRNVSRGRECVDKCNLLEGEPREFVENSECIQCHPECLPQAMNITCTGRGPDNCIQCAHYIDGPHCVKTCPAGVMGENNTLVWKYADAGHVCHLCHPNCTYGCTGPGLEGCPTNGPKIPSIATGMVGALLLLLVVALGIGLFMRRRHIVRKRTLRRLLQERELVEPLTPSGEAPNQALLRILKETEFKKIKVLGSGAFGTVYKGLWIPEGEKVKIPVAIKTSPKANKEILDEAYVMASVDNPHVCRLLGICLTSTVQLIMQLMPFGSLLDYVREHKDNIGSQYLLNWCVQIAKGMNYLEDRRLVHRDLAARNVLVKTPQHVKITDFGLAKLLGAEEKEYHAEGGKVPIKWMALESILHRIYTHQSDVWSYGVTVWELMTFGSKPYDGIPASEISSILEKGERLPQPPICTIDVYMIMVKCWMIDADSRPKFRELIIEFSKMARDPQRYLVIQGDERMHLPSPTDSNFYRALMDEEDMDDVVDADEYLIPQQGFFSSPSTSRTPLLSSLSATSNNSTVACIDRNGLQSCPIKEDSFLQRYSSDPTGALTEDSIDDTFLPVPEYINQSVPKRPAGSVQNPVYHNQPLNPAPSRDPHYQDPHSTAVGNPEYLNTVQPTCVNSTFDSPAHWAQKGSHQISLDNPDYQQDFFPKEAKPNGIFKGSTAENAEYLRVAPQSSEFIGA

| Structure (SMILES) | IC50 (EGFR del19/T790M/C797S; [1]) [nM] | IC50 (EGFR del19/T790M/C797S; [2]) [nM] | IC50 (EGFR L858R/T790M/C797S; [3]) [nM] | IC50 (EGFR L858R/T790M/C797S; [4]) [nM] | IC50 (EGFR del19/C797S; [5]) [nM] | IC50 (EGFR del19/C797S; [6]) [nM] | IC50 (EGFR L858R/C797S; [7]) [nM] | IC50 (EGFR L858R/C797S; [8]) [nM] | IC50 (EGFR wildtype (WT); [9]) [nM] | IC50 (EGFR wildtype (WT); [10]) [nM] | IC50 (EGFR del19/T790M/C797S; [11]) [nM] | IC50 (EGFR L858R/T790M/C797S; [12]) [nM] | IC50 (EGFR del19/C797S; [13]) [nM] | IC50 (EGFR L858R/C797S; [14]) [nM] | IC50 (EGFR wildtype (WT); [15]) [nM] |
| --- | --- | --- | --- | --- | --- | --- | --- | --- | --- | --- | --- | --- | --- | --- | --- |
| Cn1ccc(-c2cnc(Nc3ccnc(-c4cnn(S(=O)(=O)C5CC5)c4)n3)cc2N[C@H]2CC[C@@H](NCC(F)F)CC2)n1 [Example 45, N^2-(2-(1-(Cyclopropylsulfonyl)-1H-pyrazol-4-yl)pyrimidin-4-yl)-N^4-((1s,4s)-4-((2,2-difluoroethyl)amino)cyclohexyl)-5-(1-methyl-1H-pyrazol-3-yl)pyridine-2,4-diamine] | 0.2 | 0.6 | 0.2 | 0.2 | 0.4 | 0.6 | 2.8 | 0.7 | 918 | 2.2 | – | – | – | – | – |
| Cn1ccc(-c2cnc(Nc3ccnc(-c4cnn(S(=O)(=O)C5CC5)c4)n3)cc2NC[C@H]2CC[C@H](O)CC2)n1 [Example 47, (1r,4r)-4-(((2-((2-(1-(Cyclopropylsulfonyl)-1H-pyrazol-4-yl)pyrimidin-4-yl)amino)-5-(1-methyl-1H-pyrazol-3-yl)pyridin-4-yl)amino)methyl)cyclohexan-1-ol] | 0.6 | 0.6 | 0.5 | 0.1 | 0.8 | 0.5 | 6.5 | 0.8 | > 10000 | 4.5 | – | – | – | – | – |
| Cn1ccc(-c2cnc(Nc3ccnc(-c4cnn(S(=O)(=O)C5CC5)c4)n3)cc2NC[C@H]2CC[C@](C)(O)CC2)n1 [Example 48, (1r,4r)-4-(((2-((2-(1-(Cyclopropylsulfonyl)-1H-pyrazol-4-yl)pyrimidin-4-yl)amino)-5-(1-methyl-1H-pyrazol-3-yl)pyridin-4-yl)amino)methyl)-1-methylcyclohexan-1-ol] | 0.4 | 0.4 | 0.5 | 0.2 | 0.9 | 0.9 | 6.1 | 1.9 | 9600 | 5.8 | – | – | – | – | – |
| CC(C)(O)[C@H]1CC[C@@H](Nc2cc(Nc3ccnc(-c4cnn(S(=O)(=O)C5CC5)c4)n3)ncc2-c2csc(C(F)(F)F)n2)CC1 [Example 49, 2-((1s,4s)-4-((2-((2-(1-(Cyclopropylsulfonyl)-1H-pyrazol-4-yl)pyrimidin-4-yl)amino)-5-(2-(trifluoromethyl)thiazol-4-yl)pyridin-4-yl)amino)cyclohexyl)propan-2-ol] | – | – | – | – | – | – | – | – | – | – | 18.8 | 28.7 | 200 | 278 | > 10000 |
| O=S(=O)(C1CC1)n1cc(-c2nccc(Nc3cc(N[C@H]4CC[C@@H](NCCF)CC4)c(-c4csc(C(F)(F)F)n4)cn3)n2)cn1 [Example 50, N^2-(2-(1-(Cyclopropylsulfonyl)-1H-pyrazol-4-yl)pyrimidin-4-yl)-N^4-((1s,4s)-4-((2-fluoroethyl)amino)cyclohexyl)-5-(2-(trifluoromethyl)thiazol-4-yl)pyridine-2,4-diamine] | – | – | – | – | – | – | – | – | – | – | 1.1 | 1.6 | 25.6 | 42.2 | > 10000 |
| O=C1CC[C@]2(CC[C@H](Nc3cc(Nc4ccnc(-c5cnn(S(=O)(=O)C6CC6)c5)n4)ncc3-c3csc(C(F)(F)F)n3)CC2)N1 [Example 52, (5s,8s)-8-((2-((2-(1-(Cyclopropylsulfonyl)-1H-pyrazol-4-yl)pyrimidin-4-yl)amino)-5-(2-(trifluoromethyl)thiazol-4-yl)pyridin-4-yl)amino)-1-azaspiro[4.5]decan-2-one] | 0.6 | 0.6 | 0.6 | 0.4 | 0.8 | 1.3 | 10 | 1.6 | > 10000 | 18 | – | – | – | – | – |
